In one data set the test system is VEGF permeability model. In words: VEGF permeability model, intravitreal injection. It counts as in vivo. Conditions: dosed by intravitreal injection.
Data set [1] concerns the target T1, PDGFRβ (Homo sapiens (Human), UniProt P09619). In words: PDGFRβ Kinase Assay. It counts as biochemical. Particulars: purified cytoplasmic domain PDGFR-b protein, 36 μM ATP; read-out: PDGFRβ Enzyme Assay (IC50 nM). The procedure: Biochemical PDGFRβ kinase assays were performed in 96 well microtiter plates that were coated overnight with 75 μg of poly-Glu-Tyr (4:1) in 10 mM Phosphate Buffered Saline (PBS), pH 7.4.
(§1) PBS-T prior to starting the reaction. Reactions were carried out in 100 μL reaction volumes containing 36 μM ATP in kinase buffer (50 mM Hepes buffer pH 7.4, 20 mM MgCl2, 0.1 mM MnCl2 and 0.2 mM Na3VO4). […] Reactions were initiated by the addition 20 ul per well of kinase buffer containing 200-300 ng purified cytoplasmic domain PDGFR-b protein (Millipore). Following a 60 minute incubation at 30° C., the reactions were washed 2 mls per well PBS-T. 100 μl of a monoclonal anti-phosphotyrosine antibody-peroxidase conjugate diluted 1:10,000 in PBS-T was added to the wells for 30 minutes. Following a 2 mls per well wash with PBS-Tween-20, 100 μl of O-Phenylenediamine Dihydrochloride in phosphate-citrate buffer, containing urea hydrogen peroxide, was added to the wells for 7-10 minutes as a colorimetric substrate for the peroxidase. […] IC50 values for compound inhibition were calculated directly from graphs of optical density (arbitrary units) versus compound concentration following subtraction of blank values.
Target sequence in this assay (P09619 554-1106): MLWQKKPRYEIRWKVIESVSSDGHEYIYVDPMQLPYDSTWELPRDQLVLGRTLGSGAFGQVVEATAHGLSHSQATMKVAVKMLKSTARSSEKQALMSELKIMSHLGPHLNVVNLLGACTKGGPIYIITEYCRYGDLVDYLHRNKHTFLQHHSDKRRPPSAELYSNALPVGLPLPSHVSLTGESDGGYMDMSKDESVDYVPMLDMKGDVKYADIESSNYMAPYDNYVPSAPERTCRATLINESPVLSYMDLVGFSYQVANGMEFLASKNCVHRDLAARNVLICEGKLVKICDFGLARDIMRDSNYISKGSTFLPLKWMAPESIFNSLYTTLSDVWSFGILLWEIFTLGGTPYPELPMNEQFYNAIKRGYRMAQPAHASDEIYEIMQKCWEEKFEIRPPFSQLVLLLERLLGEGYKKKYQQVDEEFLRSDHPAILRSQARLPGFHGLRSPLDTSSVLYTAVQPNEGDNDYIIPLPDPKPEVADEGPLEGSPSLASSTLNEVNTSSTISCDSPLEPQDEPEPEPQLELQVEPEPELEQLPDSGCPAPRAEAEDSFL

Data set [2] addresses T1, PDGFRβ. In words: PDGFRβ Cellular Assay (PDGF-induced intracellular calcium, FLIPR, NHDF-Ad). It counts as cell-based. Particulars: PDGF-BB stimulation (30 ng/mL). The procedure:
(§2) Automated FLIPR (Fluorometric Imaging Plate Reader) technology was used to screen for inhibitors of PDGF-induced increases in intracellular calcium levels in fluorescent dye loaded endothelial cells. NHDF-Ad (Normal Human Dermal Fibroblasts, Adult; Lonza) were seeded in 384-well fibronectin coated black-walled plates overnight @ 37° C./5% CO2. Cells were loaded with calcium indicator Fluo-4 for 45 minutes at 37° C. Cells were washed 2 times (Elx405, Biotek Instruments) to remove extracellular dye. For screening, cells were pre-incubated with test agents for 30 minutes, at a single concentration (10 uM) or at concentrations ranging from 0.0001 to 10.0 uM followed by PDGF-BB stimulation (30 ng/mL). Changes in fluorescence at 516 nm were measured simultaneously in all 384 wells using a cooled CCD camera. Data were generated by determining max-min fluorescence levels for unstimulated, stimulated, and drug treated samples. IC50 values for test compounds were calculated from % inhibition of PDGF-BB stimulated responses in the absence of inhibitor.
Target sequence in this assay (P09619 33-1106): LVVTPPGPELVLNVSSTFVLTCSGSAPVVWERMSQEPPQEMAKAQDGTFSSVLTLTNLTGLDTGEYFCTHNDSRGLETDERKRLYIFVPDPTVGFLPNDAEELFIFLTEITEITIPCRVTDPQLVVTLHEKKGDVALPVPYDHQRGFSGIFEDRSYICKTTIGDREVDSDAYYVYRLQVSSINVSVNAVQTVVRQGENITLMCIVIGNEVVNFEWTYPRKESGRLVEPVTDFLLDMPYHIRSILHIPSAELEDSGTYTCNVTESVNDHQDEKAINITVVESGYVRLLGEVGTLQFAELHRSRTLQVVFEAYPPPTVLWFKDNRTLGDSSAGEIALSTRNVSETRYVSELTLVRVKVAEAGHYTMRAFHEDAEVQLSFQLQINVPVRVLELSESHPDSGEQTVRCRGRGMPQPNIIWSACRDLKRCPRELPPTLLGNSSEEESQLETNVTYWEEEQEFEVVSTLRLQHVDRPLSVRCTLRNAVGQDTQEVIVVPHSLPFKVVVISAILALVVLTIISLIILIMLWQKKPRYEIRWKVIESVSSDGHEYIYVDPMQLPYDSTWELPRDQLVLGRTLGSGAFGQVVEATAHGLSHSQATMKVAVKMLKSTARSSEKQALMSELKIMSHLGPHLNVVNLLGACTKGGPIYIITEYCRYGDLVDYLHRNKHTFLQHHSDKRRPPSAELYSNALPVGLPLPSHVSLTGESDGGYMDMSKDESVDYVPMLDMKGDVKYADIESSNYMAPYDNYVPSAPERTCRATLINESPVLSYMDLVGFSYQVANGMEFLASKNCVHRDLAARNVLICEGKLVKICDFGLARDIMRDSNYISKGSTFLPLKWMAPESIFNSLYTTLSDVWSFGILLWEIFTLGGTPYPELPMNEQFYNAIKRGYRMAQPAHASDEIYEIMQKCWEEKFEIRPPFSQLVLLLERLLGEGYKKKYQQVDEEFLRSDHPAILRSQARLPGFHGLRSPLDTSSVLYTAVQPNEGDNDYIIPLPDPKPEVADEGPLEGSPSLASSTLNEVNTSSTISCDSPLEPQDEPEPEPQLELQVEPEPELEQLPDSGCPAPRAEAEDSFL

In a further data set the target is VEGFR2 (KDR) (Homo sapiens (Human), UniProt P35968). The experiment in a line: VEGFR2 Kinase Assay. Particulars: purified cytoplasmic domain KDR protein, 2.7 μM ATP; read-out: VEGFR2 Enzyme Assay (IC50 nM). It counts as biochemical. As for the experimental part:
as §1, with “VEGFR2 Kinase Assay Biochemical KDR kinase assays were performed in 96 well microtiter plates that were coated overnight with 75 μg/well of poly-Glu-[…]:1) in 10 mM Phosphate Buffered Saline (PBS), pH 7.4. […]” for “PBS-T prior to starting the reaction.”, “2.7” for “36”, “KDR” for “PDGFR-b”, “(BPS Bioscience, San Diego, Calif.).” for “(Millipore).”, “15” for “60”, “0-Phenylenediamine” for “O-Phenylenediamine”

Another data set has as its target VEGFR2 (Homo sapiens (Human), UniProt P35968). In words: VEGFR2 Cellular Assay (VEGF induced intracellular calcium, FLIPR, HUVEC). Conditions: VEGF165 stimulation (10 ng/mL). It counts as cell-based. As for the experimental part: as §2, with “VEGFR2 Cellular Assay Automated” for “Automated”, “of VEGF induced” for “of PDGF-induced”, “cells. HUVEC (human umbilical vein endothelial cells) (Clonetics)” for “cells. NHDF-Ad (Normal Human Dermal Fibroblasts, Adult; Lonza)”, “by VEGF165” for “by PDGF-BB”, “stimulation (10” for “stimulation (30”, “of VEGF” for “of PDGF-BB”

VEGFR2 (KDR), sequence (P35968 786-1356): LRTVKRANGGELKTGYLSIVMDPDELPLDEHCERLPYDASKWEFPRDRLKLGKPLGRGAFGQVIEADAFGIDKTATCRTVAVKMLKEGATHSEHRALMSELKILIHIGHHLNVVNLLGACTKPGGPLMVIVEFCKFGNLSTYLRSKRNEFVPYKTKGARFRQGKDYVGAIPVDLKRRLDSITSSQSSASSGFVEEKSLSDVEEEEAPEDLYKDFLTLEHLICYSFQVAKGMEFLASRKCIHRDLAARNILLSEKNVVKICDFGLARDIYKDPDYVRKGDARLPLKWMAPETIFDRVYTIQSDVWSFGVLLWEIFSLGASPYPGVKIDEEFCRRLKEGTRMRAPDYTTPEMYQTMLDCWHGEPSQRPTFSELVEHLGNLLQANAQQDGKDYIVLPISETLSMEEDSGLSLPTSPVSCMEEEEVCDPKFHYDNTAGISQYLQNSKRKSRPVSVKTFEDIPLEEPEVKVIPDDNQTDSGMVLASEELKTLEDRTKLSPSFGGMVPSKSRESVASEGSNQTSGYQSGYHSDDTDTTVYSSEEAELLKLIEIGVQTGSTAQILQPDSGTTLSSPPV
VEGFR2, sequence (P35968 20-1356): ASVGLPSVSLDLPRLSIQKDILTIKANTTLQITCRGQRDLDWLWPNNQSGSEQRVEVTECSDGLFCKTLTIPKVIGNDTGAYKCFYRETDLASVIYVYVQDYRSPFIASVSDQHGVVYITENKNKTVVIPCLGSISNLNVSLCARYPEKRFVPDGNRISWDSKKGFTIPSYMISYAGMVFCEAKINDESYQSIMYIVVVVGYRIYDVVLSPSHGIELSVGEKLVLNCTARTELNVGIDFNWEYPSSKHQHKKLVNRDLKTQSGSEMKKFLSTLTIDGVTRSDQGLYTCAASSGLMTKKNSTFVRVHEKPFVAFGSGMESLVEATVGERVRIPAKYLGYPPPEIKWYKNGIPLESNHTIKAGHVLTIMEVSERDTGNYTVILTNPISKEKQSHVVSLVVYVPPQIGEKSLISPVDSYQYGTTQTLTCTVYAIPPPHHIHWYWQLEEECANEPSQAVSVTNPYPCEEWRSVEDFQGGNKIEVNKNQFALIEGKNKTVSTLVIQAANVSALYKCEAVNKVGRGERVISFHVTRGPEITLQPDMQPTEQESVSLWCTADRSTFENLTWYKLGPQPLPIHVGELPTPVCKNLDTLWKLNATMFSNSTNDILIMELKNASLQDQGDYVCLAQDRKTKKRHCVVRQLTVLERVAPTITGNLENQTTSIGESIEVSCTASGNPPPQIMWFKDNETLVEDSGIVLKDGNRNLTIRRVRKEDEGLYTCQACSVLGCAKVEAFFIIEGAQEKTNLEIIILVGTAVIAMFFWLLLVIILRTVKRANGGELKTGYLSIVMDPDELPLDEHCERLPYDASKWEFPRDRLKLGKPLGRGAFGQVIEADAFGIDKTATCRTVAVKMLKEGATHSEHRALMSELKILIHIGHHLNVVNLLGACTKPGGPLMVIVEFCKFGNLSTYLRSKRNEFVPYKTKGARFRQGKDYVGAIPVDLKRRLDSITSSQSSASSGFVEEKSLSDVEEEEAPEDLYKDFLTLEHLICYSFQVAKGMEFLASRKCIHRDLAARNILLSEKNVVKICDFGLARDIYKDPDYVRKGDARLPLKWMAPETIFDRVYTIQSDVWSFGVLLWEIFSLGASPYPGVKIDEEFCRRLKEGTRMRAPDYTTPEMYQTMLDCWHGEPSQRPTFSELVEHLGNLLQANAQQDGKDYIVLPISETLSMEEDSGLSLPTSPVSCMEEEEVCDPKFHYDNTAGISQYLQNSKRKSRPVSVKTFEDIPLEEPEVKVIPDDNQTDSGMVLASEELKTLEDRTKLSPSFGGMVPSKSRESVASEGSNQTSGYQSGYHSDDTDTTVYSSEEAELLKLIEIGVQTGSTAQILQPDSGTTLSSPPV

In the case of `COC(=O)CCCC[S@@](C)(=O)=NC(=O)c1cnc(N)c(C#Cc2cccc(NC(=O)c3occc3C)c2)c1` [Example 33, (R)-Methyl 5-(N-{[6-amino-5-({3-[(3-methyl-2-furoyl)amino]phenyl}ethynyl)pyridin-3-yl]carbonyl}-S-methylsulfonimidoyl)pentanoate], the “in vivo efficacy in the VEGF permeability model” value with VEGF permeability model is reported as “good in vivo efficacy”. The IC50 stood at 27 nM on PDGFRβ [1], 86 nM at PDGFRβ [2], 6 nM at VEGFR2 (KDR) and 1 nM at VEGFR2.
In the case of `COC(=O)CCCCS(C)(=O)=NC(=O)c1cnc(N)c(C#Cc2cccc(NC(=O)c3occc3C)c2)c1` (stereo not drawn) [Example 23, Methyl 5-(N-{[6-amino-5-({3-[(3-methyl-2-furoyl)amino]phenyl}ethynyl)pyridin-3-yl]carbonyl}-S-methylsulfonimidoyl)pentanoate], the “in vivo efficacy in the VEGF permeability model” value in the data set with VEGF permeability model was “good in vivo efficacy”. In addition, the IC50 worked out at 54 nM on PDGFRβ [1], 31 nM on PDGFRβ [2], 7 nM at VEGFR2 (KDR) and 1 nM at VEGFR2.
In the same order, the values of `COC(=O)CCCCS(C)(=O)=NC(=O)c1cnc(N)c(C#Cc2cccc(NC(=O)c3cccc(OC)c3)c2)c1` (stereo not drawn) [Example 30, Methyl 5-(N-{[6-amino-5-({3-[(3-methoxybenzoyl)amino]phenyl}ethynyl)pyridin-3-yl]carbonyl}-S-methylsulfonimidoyl)pentanoate] are “good in vivo efficacy”, 14 nM, 9 nM, 5 nM and 1 nM.

The values are drawn from US9266869B2, “Substituted dialkyl(oxido)-lambda4-sulfanylidene nicotinamide derivatives as kinase inhibitors” (Allergan, Inc., priority 2013, dated 2016).
